Measured values taken from PMC10826971, “Evaluating protein cross-linking as a therapeutic strategy to stabilize SOD1 variants in a mouse model of familial ALS” (PLOS Biology, 2024).
“Also recorded” adds a separate entry of the source.

Legend:
B6 G93A mice = test: Survival study, congenic B6 G93A/YFP mice, S-XL6 50 mg/kg SC on weekdays from day 108; format: in vivo, mouse; parameters: Dosed remained: unit not given here
Source text: Two fALS lines were used to assess survival in genetic backgrounds with different disease severity. […] Dose and dose regimen were estimated from the blood PK/PD profile and BBB penetration described above. A subcutaneous (SC) route of administration was chosen because in our hands it results in more precise delivery. […] In both studies, mice were gender and littermate matched and non ALS-related deaths were excluded. We are currently developing the methods necessary for quantifying copy number and cannot rule out reduced SOD1 expression as having contributed to the survival benefit in treated B6 G93A mice.
The first line was derived by crossing (over >10 generations) congenic fALS “B6 G93A mice” (B6.Cg-Tg(SOD1*G93A)1Gur/J, Stock No. 004435, The Jackson Laboratory, Bar Harbor, Maine, USA) with “YFP-16 mice” [50] (B6.Cg-Tg(Thy1-YFP)16Jrs/J, Stock No. 003709, The Jackson Laboratory, Bar Harbor, Maine, USA). This line maintains the C57BL/6J genetic background and expresses YFP in motor and sensory neurons to enable cellular-level molecular profiling in future studies. The second line is the standard “Hybrid B6SJL G93A mice” (B6SJL-Tg(SOD1*G93A)1Gur/J Stock No. 002726, The Jackson Laboratory, Bar Harbor, Maine, USA). Methods for survival studies have been described and followed the conventions for optimal trial design with fALS mice. Mice were tested for difference in: (1) disease onset (at least a 20% decrease in grip strength and open-field motor performance, which we expect to correlate with change in weight); (2) disease end-stage (disease score, e.g., loss of righting reflex); and (3) weight. The hybrid line was additionally tested for differences in forelimb and hindlimb grip strength.

SOD1^G93A = SOD1^G93A (Homo sapiens, UniProt P00441, G94A); test: Pharmacodynamic profiling: cross-linked SOD1^G93A dimer in blood (RBC) by LC-MS; format: in vivo, mouse; parameters: Extraction of SOD1^G93A from red blood cell (RBC) protein was performed as previously described; tissue Jackson Laboratory 002726; host or cells: red blood cells of transgenic B6SJL-Tg(SOD1*G93A)1Gur/J mice; conditions: for % Dimer (cross-linked SOD1^G93A in blood): 10 mg/kg IV single dose
Sequence of SOD1^G93A (P00441 2-154 G94A limits assumed): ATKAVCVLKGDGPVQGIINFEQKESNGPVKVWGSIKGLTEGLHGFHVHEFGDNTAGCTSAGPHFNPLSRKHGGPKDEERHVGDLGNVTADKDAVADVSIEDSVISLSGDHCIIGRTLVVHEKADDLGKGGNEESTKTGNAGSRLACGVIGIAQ

Question: Which results are given for `[O-][S+]1CCCCS1` (stereo not drawn) [S-XL6, 1,2-dithiane-1-oxide]?
Answer: survival benefit (B6 G93A mice; 50 mg/kg SC from day 108): modest survival benefit; also recorded: modest survival improvement; clinical signs immediately after dosing (B6 G93A mice; SC dosing): lethargy and shaking that subsided after 20 min; Dosed remained (B6 G93A mice; day 0): 100; Dosed remained (B6 G93A mice; day 125): 100; Dosed remained (B6 G93A mice; day 125.999): 100; Dosed remained (B6 G93A mice; day 127.999): 100; Dosed remained (B6 G93A mice; day 128): 100; Dosed remained (B6 G93A mice; day 128.999): 100; Dosed remained (B6 G93A mice; day 129): 100; Dosed remained (B6 G93A mice; day 129.999): 100; Dosed remained (B6 G93A mice; day 130): 100; Dosed remained (B6 G93A mice; day 130.999): 100; Dosed remained (B6 G93A mice; day 131): 100; Dosed remained (B6 G93A mice; day 131.999): 100; Dosed remained (B6 G93A mice; day 132): 100; Dosed remained (B6 G93A mice; day 132.999): 100; Dosed remained (B6 G93A mice; day 133): 100; Dosed remained (B6 G93A mice; day 133.999): 100; Dosed remained (B6 G93A mice; day 134): 100; Dosed remained (B6 G93A mice; day 134.999): 100; Dosed remained (B6 G93A mice; day 135): 100; Dosed remained (B6 G93A mice; day 135.999): 100; Dosed remained (B6 G93A mice; day 136): 100; Dosed remained (B6 G93A mice; day 136.999): 100; Dosed remained (B6 G93A mice; day 137): 100; Dosed remained (B6 G93A mice; day 137.999): 100; Dosed remained (B6 G93A mice; day 138): 100; Dosed remained (B6 G93A mice; day 138.999): 100; Dosed remained (B6 G93A mice; day 139): 100; Dosed remained (B6 G93A mice; day 139.999): 100; Dosed remained (B6 G93A mice; day 140): 100; Dosed remained (B6 G93A mice; day 140.999): 100; Dosed remained (B6 G93A mice; day 141): 100; Dosed remained (B6 G93A mice; day 141.999): 100; Dosed remained (B6 G93A mice; day 142): 100; Dosed remained (B6 G93A mice; day 142.999): 100; Dosed remained (B6 G93A mice; day 143): 100; Dosed remained (B6 G93A mice; day 143.999): 100; Dosed remained (B6 G93A mice; day 144): 100; Dosed remained (B6 G93A mice; day 144.999): 100; Dosed remained (B6 G93A mice; day 145): 100; Dosed remained (B6 G93A mice; day 145.999): 100; Dosed remained (B6 G93A mice; day 146): 100; Dosed remained (B6 G93A mice; day 146.999): 100; Dosed remained (B6 G93A mice; day 147): 100; Dosed remained (B6 G93A mice; day 147.999): 100; Dosed remained (B6 G93A mice; day 148): 100; Dosed remained (B6 G93A mice; day 148.999): 100; Dosed remained (B6 G93A mice; day 149): 100; Dosed remained (B6 G93A mice; day 149.999): 100; Dosed remained (B6 G93A mice; day 150): 100; Dosed remained (B6 G93A mice; day 150.999): 100; Dosed remained (B6 G93A mice; day 151): 100; Dosed remained (B6 G93A mice; day 151.999): 100; Dosed remained (B6 G93A mice; day 152): 100; Dosed remained (B6 G93A mice; day 152.999): 100; Dosed remained (B6 G93A mice; day 153): 100; Dosed remained (B6 G93A mice; day 153.999): 100; Dosed remained (B6 G93A mice; day 154): 100; Dosed remained (B6 G93A mice; day 154.999): 100; Dosed remained (B6 G93A mice; day 155): 100; Dosed remained (B6 G93A mice; day 155.999): 100; Dosed remained (B6 G93A mice; day 156): 100; Dosed remained (B6 G93A mice; day 156.999): 100; Dosed remained (B6 G93A mice; day 157): 70; Dosed remained (B6 G93A mice; day 172.999): 30; Dosed remained (B6 G93A mice; day 173): 30; Dosed remained (B6 G93A mice; day 173.999): 30; Dosed remained (B6 G93A mice; day 174): 30; Dosed remained (B6 G93A mice; day 174.999): 30; Dosed remained (B6 G93A mice; day 175): 30; Dosed remained (B6 G93A mice; day 175.999): 30; Dosed remained (B6 G93A mice; day 176): 30; Dosed remained (B6 G93A mice; day 176.999): 30; Dosed remained (B6 G93A mice; day 177): 30; Dosed remained (B6 G93A mice; day 177.999): 30; Dosed remained (B6 G93A mice; day 178): 20; Dosed remained (B6 G93A mice; day 178.999): 20; Dosed remained (B6 G93A mice; day 179): 20; Dosed remained (B6 G93A mice; day 179.999): 20; Dosed remained (B6 G93A mice; day 180): 20; Dosed remained (B6 G93A mice; day 180.999): 20; Dosed remained (B6 G93A mice; day 181): 20; Dosed remained (B6 G93A mice; day 181.999): 20; Dosed remained (B6 G93A mice; day 182): 20; Dosed remained (B6 G93A mice; day 182.999): 20; Dosed remained (B6 G93A mice; day 183): 20; Dosed remained (B6 G93A mice; day 183.999): 20; Dosed remained (B6 G93A mice; day 184): 20; Dosed remained (B6 G93A mice; day 184.999): 20; Dosed remained (B6 G93A mice; day 185): 10; Dosed remained (B6 G93A mice; day 185.999): 10; Dosed remained (B6 G93A mice; day 186): 10; Dosed remained (B6 G93A mice; day 186.999): 10; Dosed remained (B6 G93A mice; day 187): 10; Dosed remained (B6 G93A mice; day 187.999): 10; Dosed remained (B6 G93A mice; day 188): 10; Dosed remained (B6 G93A mice; day 188.999): 10; Dosed remained (B6 G93A mice; day 189): 10; Dosed remained (B6 G93A mice; day 189.999): 10; Dosed remained (B6 G93A mice; day 190): 0; Dosed remained (B6 G93A mice; day 190.999): 0; survival (B6 G93A mice; dosed, mean +/− STD, control 153 +/− 15 days): 169 ± 11 days; % Dimer (cross-linked SOD1^G93A in blood) (SOD1^G93A; 0.5 h post dose): 38%; % Dimer (cross-linked SOD1^G93A in blood) (SOD1^G93A; 1 h post dose): 63%; % Dimer (cross-linked SOD1^G93A in blood) (SOD1^G93A; 2 h post dose): 55%; % Dimer (cross-linked SOD1^G93A in blood) (SOD1^G93A; 4 h post dose): 53%; % Dimer (cross-linked SOD1^G93A in blood) (SOD1^G93A; 8 h post dose): 51%; % Dimer (cross-linked SOD1^G93A in blood) (SOD1^G93A; 12 h post dose): 42%; % Dimer (cross-linked SOD1^G93A in blood) (SOD1^G93A; 24 h post dose): 26%; % Dimer (cross-linked SOD1^G93A in blood) (SOD1^G93A; 48 h post dose): 20%; % Dimer (cross-linked SOD1^G93A in blood) (SOD1^G93A; 72 h post dose): 16%; % Dimer (cross-linked SOD1^G93A in blood) (SOD1^G93A; […] post dose): 6%; Target engagement in blood and brain (SOD1^G93A; G93A fALS mouse): SOD1 dimer formation in G93A fALS mouse blood and brain
